From PubChem BioAssay (NCI)
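96-well plates; 48 h exposure; 5 concentrations. Endpoints by linear interpolation between flanking doses. Not reached: highest tested concentration assigned. TGI denotes the concentration required for complete inhibition of growth.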

Legend:
Test in all cases: growth of human tumour cells (NCI), 48 h
NCI-H23 lung = tested on: NCI-H23 lung
U251 CNS = tested on: U251 CNS
HCT-15 colon = tested on: HCT-15 colon
HCT-116 colon = tested on: HCT-116 colon
PC-3 prostate = tested on: PC-3 prostate
TK-10 renal = tested on: TK-10 renal
COLO 205 colon = tested on: COLO 205 colon
ACHN renal = tested on: ACHN renal
MDA-MB-435 = tested on: MDA-MB-435
MDA-MB-231 breast = tested on: MDA-MB-231 breast
RXF 393 renal = tested on: RXF 393 renal
HS 578T breast = tested on: HS 578T breast
CAKI-1 renal = tested on: CAKI-1 renal
T-47D breast = tested on: T-47D breast
NCI-H460 lung = tested on: NCI-H460 lung
UO-31 renal = tested on: UO-31 renal
UACC-257 melanoma = tested on: UACC-257 melanoma
SF-268 CNS = tested on: SF-268 CNS
OVCAR-4 ovarian = tested on: OVCAR-4 ovarian
IGROV1 ovarian = tested on: IGROV1 ovarian
SNB-19 CNS = tested on: SNB-19 CNS
LOX IMVI melanoma = tested on: LOX IMVI melanoma
BT-549 breast = tested on: BT-549 breast
A549 NSCLC = tested on: A549 NSCLC
RPMI-8226 leukemia = tested on: RPMI-8226 leukemia
OVCAR-5 ovarian = tested on: OVCAR-5 ovarian
MCF7 breast = tested on: MCF7 breast
CCRF-CEM leukemia = tested on: CCRF-CEM leukemia
SK-MEL-5 melanoma = tested on: SK-MEL-5 melanoma
SW-620 colon = tested on: SW-620 colon
DU-145 prostate = tested on: DU-145 prostate
OVCAR-8 ovarian = tested on: OVCAR-8 ovarian
SNB-75 CNS = tested on: SNB-75 CNS
HT29 colon = tested on: HT29 colon
SK-MEL-28 melanoma = tested on: SK-MEL-28 melanoma
NCI-H522 lung = tested on: NCI-H522 lung
M14 melanoma = tested on: M14 melanoma
SK-MEL-2 melanoma = tested on: SK-MEL-2 melanoma
K-562 leukemia = tested on: K-562 leukemia
A498 renal = tested on: A498 renal
SR leukemia = tested on: SR leukemia
786-0 renal = tested on: 786-0 renal
HOP-92 NSCLC = tested on: HOP-92 NSCLC
SF-539 CNS = tested on: SF-539 CNS
NCI-H226 lung = tested on: NCI-H226 lung
NCI/ADR-RES ovarian = tested on: NCI/ADR-RES ovarian
MOLT-4 leukemia = tested on: MOLT-4 leukemia
HL-60(TB) leukemia = tested on: HL-60(TB) leukemia
SN12C renal = tested on: SN12C renal
SK-OV-3 ovarian = tested on: SK-OV-3 ovarian
EKVX NSCLC = tested on: EKVX NSCLC
KM12 colon = tested on: KM12 colon
OVCAR-3 ovarian = tested on: OVCAR-3 ovarian
UACC-62 melanoma = tested on: UACC-62 melanoma
SF-295 CNS = tested on: SF-295 CNS
HCC-2998 colon = tested on: HCC-2998 colon
HOP-62 NSCLC = tested on: HOP-62 NSCLC

O=C1C=CC(=Nc2ccccc2)c2ccccc21
TGI (NCI-H23 lung): 13.1 µM
TGI (U251 CNS): 20.5 µM
TGI (HCT-15 colon): 24.5 µM
TGI (HCT-116 colon): 24.4 µM
TGI (PC-3 prostate): 22.6 µM
TGI (TK-10 renal): 31.6 µM
TGI (COLO 205 colon): 20.3 µM
TGI (ACHN renal): 27.4 µM
TGI (MDA-MB-435): 3.42 µM
TGI (MDA-MB-231 breast): 11.3 µM
TGI (RXF 393 renal): 23.2 µM
TGI (HS 578T breast): 88.6 µM
TGI (CAKI-1 renal): 38.2 µM
TGI (T-47D breast): 47.9 µM
TGI (NCI-H460 lung): 13.8 µM
TGI (UO-31 renal): 23.3 µM
TGI (UACC-257 melanoma): 8.39 µM
TGI (SF-268 CNS): 24.8 µM
TGI (OVCAR-4 ovarian): 27.4 µM
TGI (IGROV1 ovarian): 23.2 µM
TGI (SNB-19 CNS): > 100 µM
TGI (LOX IMVI melanoma): 16.9 µM
TGI (BT-549 breast): 28 µM
TGI (A549 NSCLC): 31 µM
TGI (RPMI-8226 leukemia): 38.3 µM
TGI (OVCAR-5 ovarian): 33.4 µM
TGI (MCF7 breast): 21.4 µM
TGI (CCRF-CEM leukemia): > 100 µM
TGI (SK-MEL-5 melanoma): 2.6 µM
TGI (SW-620 colon): > 100 µM
TGI (DU-145 prostate): 3.14 µM
TGI (OVCAR-8 ovarian): 24.6 µM
TGI (SNB-75 CNS): 20 µM
TGI (HT29 colon): 34.3 µM
TGI (SK-MEL-28 melanoma): 42 µM
TGI (NCI-H522 lung): 23.3 µM
TGI (M14 melanoma): 18.6 µM
TGI (SK-MEL-2 melanoma): 8.15 µM
TGI (K-562 leukemia): 42.6 µM
TGI (A498 renal): 39.4 µM
TGI (SR leukemia): 37.1 µM
TGI (786-0 renal): 24.7 µM
TGI (HOP-92 NSCLC): 28.4 µM
TGI (SF-539 CNS): 29 µM
TGI (NCI-H226 lung): 28.8 µM
TGI (NCI/ADR-RES ovarian): 95.4 µM
TGI (MOLT-4 leukemia): 36.2 µM
TGI (HL-60(TB) leukemia): 21.7 µM
TGI (SN12C renal): 25.7 µM
TGI (SK-OV-3 ovarian): 80.5 µM
TGI (EKVX NSCLC): 12.9 µM
TGI (KM12 colon): 25.6 µM
TGI (OVCAR-3 ovarian): 7.23 µM
TGI (UACC-62 melanoma): 12.9 µM
TGI (SF-295 CNS): 21.1 µM
TGI (HCC-2998 colon): 23.1 µM
TGI (HOP-62 NSCLC): 25.3 µM
